Reference: patent publication US12391737B2, “Soluble NPY2 receptor agonists” (Boehringer Ingelheim International GmbH, priority 2020, dated 2025)
*1 amine or outer side, *2 acyl side, *3 side chain or, on linkers, in order; H or OH if unused. Where a SMILES comes first, the peptide text is derived from it. Side-chain parts run from the residue outwards. The star is where a group is joined. C18 diacid = O=C(O)CCCCCCCCCCCCCCCCC(=O)*; γGlu = O=C(O)[C@H](CCC(=O)[*:2])N[*:1]; Isovaleryl = CC(C)CC(=O)*; Ahx = NCCCCCC(=O)O

Assays:
[1] = biological target: T1, Human Neuropeptide Y2 Receptor (Homo sapiens, UniProt P49146); experiment: Radioligand binding competition assay (RLB); details: Table 3, 125I-PYY(1-36) competition; read-out: Ki
T1 construct: purchased CHEMICON HTS066M
T1 sequence (P49146 1-381): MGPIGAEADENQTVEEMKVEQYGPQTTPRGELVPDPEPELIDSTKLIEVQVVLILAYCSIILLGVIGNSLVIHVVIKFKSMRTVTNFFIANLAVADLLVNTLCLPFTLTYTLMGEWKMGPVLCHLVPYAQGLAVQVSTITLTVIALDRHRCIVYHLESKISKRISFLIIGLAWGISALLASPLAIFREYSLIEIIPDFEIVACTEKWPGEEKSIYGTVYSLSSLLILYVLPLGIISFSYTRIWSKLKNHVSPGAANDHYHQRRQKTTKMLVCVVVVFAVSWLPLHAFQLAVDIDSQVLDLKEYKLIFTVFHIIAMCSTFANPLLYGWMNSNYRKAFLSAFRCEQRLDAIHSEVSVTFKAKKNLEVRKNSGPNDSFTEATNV
In short: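 Peptides were serially diluted from 1 mM DMSO stocks and competed for radioligand binding to receptor membranes (0.5 μg/well) over 2 h at room temperature, pH 7.4 HEPES buffer. Bound radioactivity on filters was counted by scintillation, and IC50 was derived by nonlinear regression.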

Solubility determination = details: for Sol6: pH 6; for Sol7: pH 7
In short: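 Shake-flask style: 10 mg/ml peptide (TFA salt), 0.1 M sodium diphosphate pH 6.4/7.0, 600 rpm, 2 h, RT; filter; dilute 1 mg/ml in 50% MeCN; RP-UPLC, 0–100% B over 2 min, 50 °C. Solubility = sample/control area ratio. Final pH recorded.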

Row | Compound | Ki [1] [nM] | Sol6 (Solubility determination) [mg/mL] | Sol7 (Solubility determination) [mg/mL]
1 | CC[C@H](C)[C@H](NC(=O)[C@H](CCC(=O)O)NC(=O)[C@H](CCC(=O)O)NC(=O)[C@@H]1CCCN1C(=O)[C@@H](NC(=O)[C@H](C)NC(=O)[C@H](C)NC(=O)[C@H](CCC(=O)O)NC(=O)[C@H](CCC(=O)O)NC(=O)[C@@H]1CCCN1C(=O)[C@H](CCCCNC(=O)CCCCCNC(=O)CC[C@H](NC(=O)CCCCCCCCCCCCCCCCC(=O)O)C(=O)O)NC(=O)[C@H](CCC(=O)O)NC(=O)[C@@H]1CCCN1C(=O)[C@H](C)NC(=O)CC(C)C)[C@@H](C)O)C(=O)N[C@@H](CCC(N)=O)C(=O)N[C@@H](CCCNC(=N)N)C(=O)N[C@@H](Cc1ccc(O)cc1)C(=O)N[C@@H](Cc1ccc(O)cc1)C(=O)N[C@H](C(=O)N[C@@H](C)C(=O)N[C@@H](CC(C)C)C(=O)N[C@@H](CCCNC(=N)N)C(=O)N[C@@H](Cc1c[nH]cn1)C(=O)N[C@@H](Cc1ccc(O)cc1)C(=O)N[C@@H](Cc1ccc(O)cc1)C(=O)N[C@@H](CC(N)=O)C(=O)N[C@@H](Cc1c[nH]c2ccccc12)C(=O)N[C@@H](CC(C)C)C(=O)N[C@H](C(=O)N[C@@H](CCCNC(=N)N)C(=O)N[C@@H](CCC(N)=O)C(=O)N[C@@H](CCCNC(=N)N)C(=O)N[C@@H](Cc1ccc(O)cc1)C(N)=O)[C@@H](C)O)C(C)C [Compound 154, N{alpha-4}-(3-methylbutanoyl)-N{epsilon-7}-(6-[(4S)-4-carboxy-4-(17-carboxyheptadecanamido)butanamido]hexanoyl)-[4A,7K,9E,11A,13T,17I,18Q,22V,23A,28Y,30W,31L]-hPYY(4-36)] | 3.71 | 8.3 | >10.0
2 | CC[C@H](C)[C@H](NC(=O)[C@H](CCC(=O)O)NC(=O)[C@H](CCC(=O)O)NC(=O)[C@@H]1CCCN1C(=O)[C@H](CCC(=O)O)NC(=O)[C@H](C)NC(=O)[C@H](C)NC(=O)[C@H](CCC(=O)O)NC(=O)[C@H](CCC(=O)O)NC(=O)[C@@H]1CCCN1C(=O)[C@H](CCCCNC(=O)CCCCCNC(=O)CC[C@H](NC(=O)CCCCCCCCCCCCCCCCC(=O)O)C(=O)O)NC(=O)[C@H](C)NC(=O)[C@@H]1CCCN1C(=O)[C@H](C)NC(=O)CC(C)C)C(=O)N[C@@H](CCC(N)=O)C(=O)N[C@@H](CCCNC(=N)N)C(=O)N[C@@H](Cc1ccc(O)cc1)C(=O)N[C@@H](Cc1ccc(O)cc1)C(=O)N[C@H](C(=O)N[C@@H](C)C(=O)N[C@@H](CC(C)C)C(=O)N[C@@H](CCCNC(=N)N)C(=O)N[C@@H](Cc1c[nH]cn1)C(=O)N[C@@H](Cc1ccc(O)cc1)C(=O)N[C@@H](Cc1ccc(O)cc1)C(=O)N[C@@H](CC(N)=O)C(=O)N[C@@H](Cc1c[nH]c2ccccc12)C(=O)N[C@@H](CC(C)C)C(=O)N[C@H](C(=O)N[C@@H](CCCNC(=N)N)C(=O)N[C@@H](CCC(N)=O)C(=O)N[C@@H](CCCNC(=N)N)C(=O)N[C@@H](Cc1ccc(O)cc1)C(N)=O)[C@@H](C)O)C(C)C [Compound 167, N{alpha-4}-(3-methylbutanoyl)-N{epsilon-7}-(6-[(4S)-4-carboxy-4-(17-carboxyheptadecanamido)butanamido]hexanoyl)-[4A,6A,7K,9E,11A,13E,17I,18Q,22V,23A,28Y,30W,31L]-hPYY(4-36)] | 4.58 | 0.0 | 9.5
3 | CC[C@H](C)[C@H](NC(=O)[C@H](CCC(=O)O)NC(=O)[C@H](CCC(=O)O)NC(=O)[C@@H]1CCCN1C(=O)[C@H](C)NC(=O)[C@H](C)NC(=O)[C@H](CC(=O)O)NC(=O)[C@H](CCC(=O)O)NC(=O)[C@H](CCC(=O)O)NC(=O)[C@@H]1CCCN1C(=O)[C@H](CCCCNC(=O)CCCCCNC(=O)CC[C@H](NC(=O)CCCCCCCCCCCCCCCCC(=O)O)C(=O)O)NC(=O)[C@H](CCC(=O)O)NC(=O)[C@@H]1CCCN1C(=O)[C@H](C)NC(=O)CC(C)C)C(=O)N[C@@H](CCC(N)=O)C(=O)N[C@@H](CCCNC(=N)N)C(=O)N[C@@H](Cc1ccc(O)cc1)C(=O)N[C@@H](Cc1ccc(O)cc1)C(=O)N[C@H](C(=O)N[C@@H](CO)C(=O)N[C@@H](CC(C)C)C(=O)N[C@@H](CCCNC(=N)N)C(=O)N[C@@H](Cc1c[nH]cn1)C(=O)N[C@@H](Cc1ccc(O)cc1)C(=O)N[C@@H](Cc1ccc(O)cc1)C(=O)N[C@@H](CC(N)=O)C(=O)N[C@@H](Cc1c[nH]c2ccccc12)C(=O)N[C@@H](CC(C)C)C(=O)N[C@H](C(=O)N[C@@H](CCCNC(=N)N)C(=O)N[C@@H](CCC(N)=O)C(=O)N[C@@H](CCCNC(=N)N)C(=O)N[C@@H](Cc1ccc(O)cc1)C(N)=O)[C@@H](C)O)C(C)C [Compound 170, N{alpha-4}-(3-methylbutanoyl)-N{epsilon-7}-(6-[(4S)-4-carboxy-4-(17-carboxyheptadecanamido)butanamido]hexanoyl)-[4A,7K,9E,13A,17I,18Q,22V,28Y,30W,31L]-hPYY(4-36)] | 2.28 | >10.0 | 10.0
4 | CC[C@H](C)[C@H](NC(=O)[C@H](CCC(=O)O)NC(=O)[C@H](CCC(=O)O)NC(=O)[C@@H]1CCCN1C(=O)[C@H](CCC(=O)O)NC(=O)[C@H](C)NC(=O)[C@H](C)NC(=O)[C@H](C)NC(=O)[C@H](CCC(=O)O)NC(=O)[C@@H]1CCCN1C(=O)[C@H](CCCCNC(=O)CCCCCNC(=O)CC[C@H](NC(=O)CCCCCCCCCCCCCCCCC(=O)O)C(=O)O)NC(=O)[C@H](CCC(=O)O)NC(=O)[C@@H]1CCCN1C(=O)[C@H](C)NC(=O)CC(C)C)C(=O)N[C@@H](CCC(N)=O)C(=O)N[C@@H](CCCNC(=N)N)C(=O)N[C@@H](Cc1ccc(O)cc1)C(=O)N[C@@H](Cc1ccc(O)cc1)C(=O)N[C@H](C(=O)N[C@@H](CO)C(=O)N[C@@H](CC(C)C)C(=O)N[C@@H](CCCNC(=N)N)C(=O)N[C@@H](Cc1c[nH]cn1)C(=O)N[C@@H](Cc1ccc(O)cc1)C(=O)N[C@@H](Cc1ccc(O)cc1)C(=O)N[C@@H](CC(N)=O)C(=O)N[C@@H](Cc1c[nH]c2ccccc12)C(=O)N[C@@H](CC(C)C)C(=O)N[C@H](C(=O)N[C@@H](CCCNC(=N)N)C(=O)N[C@@H](CCC(N)=O)C(=O)N[C@@H](CCCNC(=N)N)C(=O)N[C@@H](Cc1ccc(O)cc1)C(N)=O)[C@@H](C)O)C(C)C [Compound 124, N{alpha-4}-(3-methylbutanoyl)-N{epsilon-7}-(6-[(4S)-4-carboxy-4-(17-carboxyheptadecanamido)butanamido]hexanoyl)-[4A,7K,9E,10A,11A,13E,17I,18Q,22V,28Y,30W,31L]-hPYY(4-36)] (Isovaleryl-APEK([Ahx-γGlu-C18 diacid])PEAAAEPEEIQRYYVSLRHYYNWLTRQRY-NH2) | 3.07 | 9.7 | >10.0
